According to patent publication US10555987B2, “GHRH agonists for the treatment of ischemic disorders” (UNIVERSITY OF MIAMI, priority 2012, dated 2020):
Non-standard residues stand in square brackets, D forms with d. Residues, ends and D or L forms follow the SMILES beside them. *: point of attachment. Desaminotyrosyl = O=C(CCc1ccc(O)cc1)*; hArg = N=C(N)NCCCC[C@H](N)C(=O)O; Agmatine = N=C(N)NCCCCN*; Nle = CCCC[C@H](N)C(=O)O; Orn = NCCC[C@H](N)C(=O)O; Abu = CC[C@H](N)C(=O)O

Target: T1, GHRH receptor (Homo sapiens, UniProt Q02643)
T1 sequence (Q02643 23-423): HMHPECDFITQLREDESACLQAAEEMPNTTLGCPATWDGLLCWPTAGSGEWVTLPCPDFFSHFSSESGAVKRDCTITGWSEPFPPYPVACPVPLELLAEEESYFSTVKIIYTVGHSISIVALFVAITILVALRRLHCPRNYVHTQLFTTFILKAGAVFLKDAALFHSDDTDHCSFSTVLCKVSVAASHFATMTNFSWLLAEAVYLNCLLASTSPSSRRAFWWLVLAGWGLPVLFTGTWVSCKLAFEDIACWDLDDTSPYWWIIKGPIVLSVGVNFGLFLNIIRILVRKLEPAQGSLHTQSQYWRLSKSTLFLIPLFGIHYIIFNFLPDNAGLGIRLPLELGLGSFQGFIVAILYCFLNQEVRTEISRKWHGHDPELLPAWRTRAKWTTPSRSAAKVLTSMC
Assay: GHRH receptor binding, competition with 125I-labeled [His1,Nle27]hGHRH(1-32)NH2, human pituitary membrane homogenates (Table 6)
Set-up: Normal human pituitaries were purchased from the National Hormone and Peptide Program; tissue National Hormone and Peptide Program (A.F. Parlow, Harbor-UCLA Medical Center, Torrance, Calif.); host or cells: normal human pituitary, membrane fraction
Details: for Relative affinity (Binding potency) vs GHRH: GHRH(1-29) = 1, Table 6; for Relative affinity (Binding potency) vs JI-38: JI-38 = 1, Table 6
Description: Normal human pituitaries were purchased from the National Hormone and Peptide Program (A.F. Parlow, Los Angeles, County Harbor-UCLA Medical Center, Torrance, Calif.).

| Compound | Relative affinity (Binding potency) vs GHRH | Relative affinity (Binding potency) vs JI-38 |
| --- | --- | --- |
| CCCC[C@H](NC(=O)[C@@H](NC(=O)[C@H](CC(=O)O)NC(=O)[C@H](CCC(N)=O)NC(=O)[C@H](CC(C)C)NC(=O)[C@H](CC(C)C)NC(=O)[C@H](CCCN)NC(=O)[C@H](CCCNC(=N)N)NC(=O)[C@H](C)NC(=O)[C@H](CO)NC(=O)[C@H](CC(C)C)NC(=O)[C@H](CCC(N)=O)NC(=O)[C@H](CC)NC(=O)[C@H](CC(C)C)NC(=O)[C@@H](NC(=O)[C@H](CCCN)NC(=O)[C@H](CCCNC(=N)N)NC(=O)[C@H](Cc1ccc(O)cc1)NC(=O)[C@H](CO)NC(=O)[C@H](CC(N)=O)NC(=O)[C@@H](NC(=O)[C@H](Cc1ccccc1)NC(=O)[C@@H](NC(=O)[C@H](C)NC(=O)[C@H](CC(=O)O)NC(=O)[C@@H](C)NC(=O)CCc1ccc(O)cc1)[C@@H](C)CC)[C@@H](C)O)C(C)C)[C@@H](C)CC)C(=O)N[C@@H](CC(=O)O)C(=O)N[C@@H](CCCNC(=N)N)C(=O)N[C@@H](CCCCNC(=N)N)C(N)=O [Peptide P-23252, [Dat^1-D-Ala^2, Orn^12, Abu^15, Orn^21, Nle^27, Asp^28, Har^30]hGHRH(1-30)NH^2] (Desaminotyrosyl-[dA]DAIFTNSYR[Orn]VL[Abu]QLSAR[Orn]LLQDI[Nle]DR[hArg]-NH2) | 42.3 | 13.9 |
| CCCC[C@H](NC(=O)[C@@H](NC(=O)[C@H](CC(=O)O)NC(=O)[C@H](CCC(N)=O)NC(=O)[C@H](CC(C)C)NC(=O)[C@H](CC(C)C)NC(=O)[C@H](CCCN)NC(=O)[C@H](CCCNC(=N)N)NC(=O)[C@H](C)NC(=O)[C@H](CO)NC(=O)[C@H](CC(C)C)NC(=O)[C@H](CCC(N)=O)NC(=O)[C@H](CC)NC(=O)[C@H](CC(C)C)NC(=O)[C@@H](NC(=O)[C@H](CCCN)NC(=O)[C@H](CCCNC(=N)N)NC(=O)[C@H](Cc1ccc(O)cc1)NC(=O)[C@H](CO)NC(=O)[C@@H](NC(=O)[C@@H](NC(=O)[C@H](Cc1ccccc1)NC(=O)[C@@H](NC(=O)[C@H](C)NC(=O)[C@H](CC(=O)O)NC(=O)[C@@H](C)NC(=O)CCc1ccc(O)cc1)[C@@H](C)CC)[C@@H](C)O)[C@@H](C)O)C(C)C)[C@@H](C)CC)C(=O)N[C@@H](CC(=O)O)C(=O)N[C@@H](CCCNC(=N)N)C(=O)N[C@@H](CCCCNC(=N)N)C(N)=O [Peptide P-23254, [Dat^1, D-Ala^2, Thr^8, Orn^12, Abu^15, Orn^21, Nle^27, Asp^28, Har^30]hGHRH(1-30)NH2] (Desaminotyrosyl-[dA]DAIFTTSYR[Orn]VL[Abu]QLSAR[Orn]LLQDI[Nle]DR[hArg]-NH2) | 84.5 | 27.8 |
| CCCC[C@H](NC(=O)[C@@H](NC(=O)[C@H](CC(=O)O)NC(=O)[C@H](CCC(N)=O)NC(=O)[C@H](CC(C)C)NC(=O)[C@H](CC(C)C)NC(=O)[C@H](CCCN)NC(=O)[C@H](CCCNC(=N)N)NC(=O)[C@H](C)NC(=O)[C@H](CO)NC(=O)[C@H](CC(C)C)NC(=O)[C@H](CCC(N)=O)NC(=O)[C@H](CC)NC(=O)[C@H](CC(C)C)NC(=O)[C@@H](NC(=O)[C@H](CCCN)NC(=O)[C@H](CCCNC(=N)N)NC(=O)[C@H](Cc1ccc(O)cc1)NC(=O)[C@H](CO)NC(=O)[C@H](CC(N)=O)NC(=O)[C@@H](NC(=O)[C@H](Cc1ccccc1)NC(=O)[C@@H](NC(=O)[C@H](C)NC(=O)[C@H](CC(=O)O)NC(=O)[C@H](C)NC(=O)CCc1ccc(O)cc1)[C@@H](C)CC)[C@@H](C)O)C(C)C)[C@@H](C)CC)C(=O)N[C@@H](CC(=O)O)C(=O)NCCCCNC(=N)N [JI-34, reference compound] (Desaminotyrosyl-ADAIFTNSYR[Orn]VL[Abu]QLSAR[Orn]LLQDI[Nle]D-Agmatine; N-terminus and C-terminus assumed) | 4.32 |  |
